Assay results from PMC9558907, “Synthesis and pharmacological evaluation of newly detected synthetic cannabinoid receptor agonists AB-4CN-BUTICA, MMB-4CN-BUTINACA, MDMB-4F-BUTICA, MDMB-4F-BUTINACA and their analogs” (Frontiers in Psychiatry, 2022).

Columns and labels:
human CB2 [1] = molecular target: T1, human CB2 (Homo sapiens, UniProt P34972); assay: fluorescence-based membrane potential assay (GIRK activation) in AtT20 cells; format: cell-based; set-up: expressed in transfected cells; host or cells: mouse AtT20 FlpIn cells; details: for hCB2 Emax ±SEM: normalised to 1 μM CP55,940
T1 sequence (P34972 whole entry): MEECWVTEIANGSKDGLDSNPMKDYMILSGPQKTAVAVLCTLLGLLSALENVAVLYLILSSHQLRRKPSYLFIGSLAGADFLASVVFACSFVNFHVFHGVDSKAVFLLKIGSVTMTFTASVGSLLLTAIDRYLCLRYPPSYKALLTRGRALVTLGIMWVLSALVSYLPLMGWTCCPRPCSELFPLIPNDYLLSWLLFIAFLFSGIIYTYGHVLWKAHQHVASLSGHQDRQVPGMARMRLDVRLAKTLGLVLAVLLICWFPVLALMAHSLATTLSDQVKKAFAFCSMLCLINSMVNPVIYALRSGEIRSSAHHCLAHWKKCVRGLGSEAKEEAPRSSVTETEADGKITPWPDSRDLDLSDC

human CB2 [2] = molecular target: T1, human CB2; assay: competitive radioligand binding assay, displacement of [3H]CP55,940, HEK cell membranes; set-up: expressed in transfected cells; host or cells: HEK293 cells, P2 membrane preparation; details: [3H]CP55,940 1 nM
human CB1 [3] = molecular target: T2, human CB1 (Homo sapiens, UniProt P21554); assay: as above; set-up: expressed in transfected cells; host or cells: HEK293 cells, P2 membrane preparation; details: [3H]CP55,940 1 nM
T2 sequence (P21554 whole entry): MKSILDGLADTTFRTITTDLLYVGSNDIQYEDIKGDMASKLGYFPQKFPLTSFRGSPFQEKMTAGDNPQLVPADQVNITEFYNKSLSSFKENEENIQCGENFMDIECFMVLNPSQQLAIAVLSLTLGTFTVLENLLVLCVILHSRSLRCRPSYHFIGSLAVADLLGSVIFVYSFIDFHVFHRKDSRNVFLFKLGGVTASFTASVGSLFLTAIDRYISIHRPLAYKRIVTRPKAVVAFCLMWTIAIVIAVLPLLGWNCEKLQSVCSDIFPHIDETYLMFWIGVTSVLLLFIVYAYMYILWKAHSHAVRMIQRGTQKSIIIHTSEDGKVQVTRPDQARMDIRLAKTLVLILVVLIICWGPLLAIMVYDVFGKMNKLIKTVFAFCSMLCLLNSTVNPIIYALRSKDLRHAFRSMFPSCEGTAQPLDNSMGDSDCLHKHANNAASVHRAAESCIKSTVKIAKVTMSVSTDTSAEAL

human CB1 [4] = molecular target: T2, human CB1; assay: fluorescence-based membrane potential assay (GIRK activation) in AtT20 cells; format: cell-based; set-up: expressed in transfected cells; host or cells: mouse AtT20 FlpIn cells; details: for hCB1 Emax ±SEM / hCB1 maximal response at 10 μM (footnote d): AtT20-hCB1; for hCB1 Emax ±SEM: normalised to 1 μM CP55,940; for EC50: hCB1 EC50, AtT20-hCB1, value in brackets after pEC50; for hCB1 maximal response at 10 μM (footnote d): highest concentration tested, curve not fitted
[5] = hCB2 EC50, AtT20-hCB2, value in brackets after pEC50
[6] = hCB2 Ki, value in brackets after pKi
[7] = hCB1 pKi ±SEM, mean ± SEM of 3 to 6 independent experiments
[8] = hCB1 Ki, value in brackets after pKi
[9] = hCB2 pKi ±SEM, mean ± SEM of 3 to 6 independent experiments

Row | Structure (SMILES) | hCB2 Emax ±SEM (human CB2 [1]; AtT20-hCB2) | EC50 (human CB2 [1]; [5]) | melting point | Ki (human CB2 [2]; [6]) | Ki (human CB1 [3]; [7]) | hCB1 Emax ±SEM (human CB1 [4]) | EC50 (human CB1 [4]) | Ki (human CB1 [3]; [8]) | hCB1 maximal response at 10 μM (footnote d) (human CB1 [4]) | hCB1 maximal response at 10 μM (footnote d) (human CB1 [4]; listed as APP-4F-BUT7AICA (33)) | EC50 (human CB2 [1]; hCB2 pEC50 ±SEM, AtT20-hCB2) | Ki (human CB2 [2]; [9])
1 | CC(C)[C@H](NC(=O)c1nn(CCCCF)c2ccccc12)C(N)=O [Compound 28, (S)-N-(1-amino-3-methyl-1-oxobutan-2-yl)-1-(4-fluorobutyl)-1H-indazole-3-carboxamide] | 96 ± 1 % CP55,940 | 0.00485 µM | 188 to 190 °C | 0.0085 µM | 0.132 µM | 107 ± 2 % CP55,940 | 0.00598 µM |  |  |  |  | 
2 | CC(C)(C)[C@H](NC(=O)c1nn(CCCCF)c2ccccc12)C(N)=O [Compound 29, (S)-N-(1-amino-3,3-dimethyl-1-oxobutan-2-yl)-1-(4-fluorobutyl)-1H-indazole-3-carboxamide] | 103 ± 2 % CP55,940 | 0.00528 µM | 77 to 79 °C | 0.00069 µM |  | 116± 2 % CP55,940 | 0.00161 µM | 0.00407 µM |  |  |  | 
3 | NC(=O)[C@H](Cc1ccccc1)NC(=O)c1nn(CCCCF)c2ccccc12 [Compound 30, (S)-N-(1-amino-1-oxo-3-phenylpropan-2-yl)-1-(4-fluorobutyl)-1H-indazole-3-carboxamide] | 101 ± 12 % CP55,940 | 0.00835 µM | 100 to 103 °C | 0.0282 µM |  | 103 ± 3 % CP55,940 | 0.504 µM | 1.38 µM |  |  |  | 
4 | CC(C)(C)[C@H](NC(=O)c1cn(CCCCF)c2ncccc12)C(N)=O [Compound 32, (S)-N-(1-amino-3,3-dimethyl-1-oxobutan-2-yl)-1-(4-fluorobutyl)-1H-pyrrolo[2,3-b]pyridine-3-carboxamide] | 108 ± 2 % CP55,940 | 0.00499 µM | 95 to 96 °C | 0.046 µM | 1.26 µM | 112 ± 6 % CP55,940 | 0.046 µM | 1.3 µM |  |  |  | 
5 | NC(=O)[C@H](Cc1ccccc1)NC(=O)c1cn(CCCCF)c2ncccc12 [Compound 33, (S)-N-(1-amino-1-oxo-3-phenylpropan-2-yl)-1-(4-fluorobutyl)-1H-pyrrolo[2,3-b]pyridine-3-carboxamide] | 99 ± 12 % CP55,940 | 1.17 µM | 153 to 154 °C | 2.4 µM | > 10 µM |  |  |  | submaximal agonist activity | 25 ± 14^d % CP55,940 |  | 
6 | COC(=O)[C@@H](NC(=O)c1cn(CCCCF)c2ccccc12)C(C)C [Compound 34, methyl (1-(4-fluorobutyl)-1H-indole-3-carbonyl)-L-valinate] | 102 ± 2 % CP55,940 | 0.0114 µM | 111 to 114 °C | 0.0269 µM |  | 116 ± 3 % CP55,940 | 0.0769 µM | 0.0977 µM |  |  | 0.0112 µM | 
7 | COC(=O)[C@H](Cc1ccccc1)NC(=O)c1cn(CCCCF)c2ccccc12 [Compound 35, methyl (1-(4-fluorobutyl)-1H-indole-3-carbonyl)-L-phenylalaninate] | 100 ± 2 % CP55,940 | 0.0101 µM | 124 to 126 °C | 0.0061 µM |  | 105 ± 2 % CP55,940 | 0.0366 µM | 0.27 µM |  |  |  | 0.00603 µM
8 | COC(=O)[C@@H](NC(=O)c1cn(CCCCF)c2ncccc12)C(C)C [Compound 38, methyl (1-(4-fluorobutyl)-1H-pyrrolo[2,3-b]pyridine-3-carbonyl)-L-valinate] | 114 ± 6 % CP55,940 | 0.0496 µM | 81 to 82 °C | 0.061 µM | 0.224 µM | 115 ± 16 % CP55,940 | 1.39 µM | 0.22 µM |  |  |  | 0.0603 µM
9 | COC(=O)[C@@H](NC(=O)c1cn(CCCCF)c2ncccc12)C(C)(C)C [Compound 39, methyl (S)-2-(1-(4-fluorobutyl)-1H-pyrrolo[2,3-b]pyridine-3-carboxamido)-3,3-dimethylbutanoate] | 95 ± 2 % CP55,940 | 0.00388 µM | 56 to 58 °C | 0.00214 µM |  | 109 ± 3 % CP55,940 | 0.0222 µM | 0.107 µM |  |  |  | 
